Data published in patent publication US6469028B1, “Synthesis and use of retinoid compounds having negative hormone and/or anatgonist activities” (Allergan, Inc., priority 1995, dated 2002).

How the values were obtained:
[1] = test system: 1,25-dihydroxyvitamin D3-dependent gene expression; test: Example 14: 1,25-dihydroxyvitamin D3 transactivation, MTV-VDRE-Luc in HeLa cells; assay type: cell-based; details: AGN 193109 10-100 nM coadministered
Protocol: Hela cells were transfected using the cationic liposome-mediated transfection procedure described by Feigner et al. in Proc. Natl. Acad. Sci. USA 84:7413 (1987). 5×10^4 cells were plated in 12-well multiwell plates and grown in DMEM supplemented with 10% FBS. Cells were cotransfected in serum-free medium using 2 μg/well of LIPOFECTAMINE reagent (Life Technologies, Inc.) with 0.7 μg of the reporter plasmid MTV-VDRE-Luc, containing two copies of the 1,25-dihydroxyvitamin D3 response element [NT] ID NO:4) from the mouse osteopontin gene (Ferrara et al. J. Biol. Chem. 269:2971 (1994)) ligated into the reporter plasmid ΔMTV-Luc (Heyman et al. in Cell 68:397 (1992)), and 0.3 μg of the plasmid pGEM3Z (Pharmacia, Inc.) as carrier DNA to bring the final concentration of DNA to 1.0 μg per well. After six hours of transfection, cells were fed with growth medium containing charcoal extracted FBS at a final concentration of 10%. […] Luciferase activity was measured as described above. This experimental system allowed a convenient method of monitoring and quantitating 1,25-dihydroxyvitamin D3-dependent gene expression.

[2] = test system: guinea pigs; test: Example 5: premature epiphyseal plate closure (bone toxicity); assay type: in vivo; details: AGN 191183 0.06 mg/ml + AGN 193109 0.34 mg/ml (5-fold molar excess), osmotic pump, 14 days
Protocol: The osmotic pumps are designed by the manufacturer to deliver ˜5 μl of solution per hour continuously for 14 days.
The animals were euthanized by carbon dioxide asphyxiation 14 days after implantation. The left tibia was removed and placed in 10% buffered formalin. The tibias were decalcified by exposure to a formic acid/formalin solution for 3-4 days, and paraffin sections were prepared. Sections were stained with hematoxylin and eosin by standard methods. The proximal tibial epiphyseal plate was examined and scored as closed or not closed. Epiphyseal plate closure is defined for this purpose as any interruption of the continuity of the epiphyseal growth plate cartilage, i.e., replacement by bone and/or fibroblastic tissue.

[3] = test system: stromelysin-1 expression in primary foreskin keratinocytes; test: Example 21: stromelysin-1 expression in keratinocytes (RT-PCR); assay type: cell-based, human; details: AGN 191183 10^−7 M or AGN 193109 10^−6 M, 24 hours
Protocol: Total RNA prepared from mock-treated and retinoid-treated keratinocytes was reverse transcribed and the resulting cDNA was PCR amplified using β-actin or stromelysin-1 oligo primers exactly as described by Nagpal et al. in J. Biol. Chem. 270:923 (1995)), the disclosure of which has been incorporated by reference. A sample (10 μl) from the PCR amplification reaction was removed after every three cycles starting from 18 cycles of PCR amplification. The sample was electrophoresed on a 2% agarose gel and detected after ethidium bromide staining.

[4] = test system: CaSki cells; test: Example 18: proliferation of CaSki cells; assay type: cell-based; details: 10^−6 M AGN 193109, no added retinoid agonist
Protocol: EGF was added to the retinoid treated cultures to give a final concentration of 20 ng/ml. […] The media was replaced with fresh media and each of the two retinoid compounds, as appropriate, every day. Cell numbers were determined using a COULTER counter as described above.

[5] = biological target: T1, RARβ (Homo sapiens, UniProt P10826); test: Transactivation in CV-1 cells, ΔMTV-TREp-Luc reporter; assay type: cell-based; set-up: expressed in transfected cells; host or cells: green monkey CV-1 cells; details: 10^−9 to 10^−6 M, 18 hours
T1 sequence (P10826 1-448 isoform P10826-2): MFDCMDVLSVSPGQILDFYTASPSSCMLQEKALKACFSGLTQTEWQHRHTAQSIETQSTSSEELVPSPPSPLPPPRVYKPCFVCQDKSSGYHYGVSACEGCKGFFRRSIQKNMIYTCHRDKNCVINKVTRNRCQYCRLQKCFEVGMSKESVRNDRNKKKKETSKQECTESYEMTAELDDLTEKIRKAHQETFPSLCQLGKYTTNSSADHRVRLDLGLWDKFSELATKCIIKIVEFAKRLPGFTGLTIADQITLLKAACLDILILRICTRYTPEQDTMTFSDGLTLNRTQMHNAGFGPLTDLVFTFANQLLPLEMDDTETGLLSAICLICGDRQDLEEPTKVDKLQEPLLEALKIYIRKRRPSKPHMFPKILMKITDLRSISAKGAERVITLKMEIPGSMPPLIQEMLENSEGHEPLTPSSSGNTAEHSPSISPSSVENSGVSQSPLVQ
Protocol: AGN 193109 was also tested for its ability to transactivate RARs in CV-1 cells transiently cotransfected with RAR expression vectors and a retinoid responsive reporter gene construct. Receptor expression vectors pRShRAR-α (Giguere et al. Nature 330:624 (1987)), pRShRAR-β (Benbrook et al. Nature 333:669 (1988)) and pRShRAR-γ (Ishikawa et al. Mol. Endocrinol. 4:837 (1990)) were separately cotransfected with the ΔMTV-TREp-Luc reporter plasmid. Use of this luciferase reporter plasmid has been disclosed by Heyman et al. in Cell 68:397 (1992). The ΔMTV-TREp-Luc plasmid is essentially identical to the ΔMTV-TREp-CAT reporter construct described by Umesono et al. in Nature 336:262 (1988), except that the chloramphenicol acetyltransferase (CAT) reporter gene was substituted by a polynucleotide sequence encoding firefly luciferase. Transfection of green monkey CV-1 cells was carried out using the calcium phosphate coprecipitation method described in Molecular Cloning: A Laboratory Manual (Sambrook et al. eds. Cold Spring Harbor Lab Publ. 1989). CV-1 cells were plated at a density of 4×10^4/well in 12 well multiwell plates and transiently transfected with a calcium phosphate precipitate containing 0.7 μg of reporter plasmid and 0.1 μg of receptor plasmid according to standard laboratory procedures. […]

[6] = test system: RAR-γ-VP-16 with ER-RXR-α

With `Cc1ccc(C2=CCC(C)(C)c3ccc(C#Cc4ccc(C(=O)O)cc4)cc32)cc1` [Compound 60, 4-[(5,6-dihydro-5,5-dimethyl-8-(4-methylphenyl)-2-naphthalenyl)ethynyl]benzoic acid] the “increase in activity of 1,25-dihydroxyvitamin D3” value [1] was “approximately 10 fold”, the epiphyseal plate closure [2] was “completely blocked AGN 191183-induced bone toxicity” and the “stromelysin-1 mRNA expression” value [3] was “down-regulation of stromelysin-1 mRNA levels”. The proliferation [4] was “inhibited proliferation of the CaSki cervical epithelial cell line”, the “EC50 (nM) RAR-β” value [5] was “No Activity” and the luciferase activity readings ([6]; AGN 193109 at 10^−8−10^−6 M (maximal inhibition)) was “approximately 16,000 rlu”. For the same compound, the “concentration of maximal inhibition of luciferase activity” value ([6]; cells cotransfected with ER-RXR-α and RAR-γ-VP-16) was “approximately 10^−8 M” and the “luciferase activity of triple transfectants” value ([6]; no other retinoid added, 18 hours) was “dose dependent decrease in luciferase activity”.
